Measurements as given in US9034352B2, “Microbicide combinations containing silver” (Rohm and Haas Company, priority 2006, dated 2015).
Several values for one entry are separate records, joined by “and”; a condition that tells them apart may be missing. Equal values may be shown once. Read-outs that look alike come from different tables or passages of the source.

Tests used:
Experiment in all cases: Synergy test, high resolution MIC microtiter plate assay
Type in all cases: cell-based
[1] = system: Aspergillus niger (A. niger—ATCC 16404); conditions: for MIC of component acting alone (end point): A. niger, Ag-polymer on active silver ion basis; for MIC: Aspergillus niger, read-out: MIC of component acting alone (end point)
From the text: (§1) One measure of synergism is the industrially accepted method described by Kull, F. C.; Eisman, P. C.; Sylwestrowicz, H. D. and Mayer, R. L., in Applied Microbiology 9:538-541 (1961), using the ratio determined by the formula: Ca/CA+Cb/CB=Synergy Index (“SI”) wherein:
(§2) CA=concentration of compound A (first component) in ppm, acting alone, which produced an end point (MIC of Compound A).
(§3) Ca=concentration of compound A in ppm, in the mixture, which produced an end point.
(§4) CB=concentration of compound B (second component) in ppm, acting alone, which produced an end point (MIC of Compound B).
(§5) Cb=concentration of compound B in ppm, in the mixture, which produced an end point.
(§6) When the sum of Ca/CA and Cb/CB is greater than one, antagonism is indicated. […] The lower the SI, the greater the synergy shown by that particular mixture. The minimum inhibitory concentration (MIC) of an antimicrobial compound is the lowest concentration tested under a specific set of conditions that prevents the growth of added microorganisms.
(§7) Synergy tests were conducted using standard microtiter plate assays with media designed for optimal growth of the test microorganism. Soybean Casein Digest Broth (Tryptic Soy Broth, TSB medium) or minimal salt medium supplemented with 0.2% glucose and 0.1% yeast extract (M9GY medium) was used for testing bacteria; Potato Dextrose Broth (PDB medium) was used for testing yeast and mold. In this method, a wide range of combinations of microbicides was tested by conducting high resolution MIC assays in the presence of various concentrations of the biocides. High resolution MICs were determined by adding varying amounts of microbicide to one column of a microtitre plate and doing subsequent ten-fold dilutions using an automated liquid handling system.
(§8) The bacteria were used at a concentration of about 1-6×10^6 bacteria per mL and the yeast and mold at 1-5×10^5 fungi per mL. These microorganisms are representative of natural contaminants in many consumer and industrial applications. […] (yeast and mold) or 30° C. (bacteria).

[2] = system: Pseudomonas aeruginosa (P. aeruginosa—ATCC #15442); conditions: for MIC of component acting alone (end point): P. aeruginosa, Ag-polymer on active silver ion basis
From the text: as §1, §2, §3, §4, §5, §6, §7, §8

[3] = system: Staphylococcus aureus (S. aureus—ATCC #6538); conditions: for MIC of component acting alone (end point): S. aureus, Ag-polymer on active silver ion basis; for MIC: Staphylococcus aureus, read-out: MIC of component acting alone (end point)
From the text: as §1, §2, §3, §4, §5, §6, §7, §8

[4] = system: Candida albicans (C. albicans—ATCC 10231); conditions: for MIC of component acting alone (end point): C. albicans, Ag-polymer on active silver ion basis; for Ca (Component A in combination): Hydrogen Peroxide combined with Ag-polymer formulation; for MIC: Candida albicans, read-out: MIC of component acting alone (end point)
From the text: as §1, §2, §3, §4, §5, §6, §7
(§9) […]. The bacteria were used at a concentration of about 1-6×10^6 bacteria per mL and the yeast and mold at 1-5×10^5 fungi per mL. These microorganisms are representative of natural contaminants in many consumer and industrial applications. […] (yeast and mold) or 30° C. (bacteria).
(§10) The end point values in the following examples for the silver-polymer complex are reported on an active silver ion basis.

[5] = system: Esherichia coli (E. coli—ATCC #8739); conditions: Ag-polymer on active silver ion basis
From the text: as §1, §2, §3, §4, §5, §6, §7, §9, §10

[6] = Table 13, 3-Iodo-2-propynyl butylcarbamate alone, contact time 24 hour
[7] = Table 13, 3-Iodo-2-propynyl butylcarbamate alone, contact time 48 hour
[8] = 5-Chloro-2-(2,4-dichlorophenoxy)phenol combined with Ag-polymer formulation, contact time 48 hour
[9] = Table 12, 5-Chloro-2-(2,4-dichlorophenoxy)phenol alone, contact time 24 hour
[10] = Table 12, 5-Chloro-2-(2,4-dichlorophenoxy)phenol alone, contact time 48 hour
[11] = Table 11, Glutaraldehyde alone, contact time 24 hour
[12] = Table 11, Glutaraldehyde alone, contact time 48 hour
[13] = Hydrogen Peroxide combined with Ag-polymer formulation, contact time 24 hour
[14] = Table 9, Hydrogen Peroxide alone, contact time 24 hour
[15] = Table 9, Hydrogen Peroxide alone, contact time 48 hour
[16] = Sodium hypochlorite (as Free Cl2) combined with Ag-polymer formulation, contact time 48 hour
[17] = Table 10, Sodium hypochlorite alone, as Free Cl2, contact time 24 hour
[18] = Table 10, Sodium hypochlorite alone, as Free Cl2, contact time 48 hour

With `CCCCNC(=O)OCC#CI` [3-Iodo-2-propynyl butylcarbamate] the “Ca (Component A alone)” value ([1]; Table 13, 3-Iodo-2-propynyl butylcarbamate alone, contact time 3 days) was 0.4, the “Ca (Component A alone)” value ([1]; Table 13, 3-Iodo-2-propynyl butylcarbamate alone, contact time 7 days) was 0.8 and the “Ca (Component A in combination)” value ([2]; 3-Iodo-2-propynyl butylcarbamate combined with Ag-polymer formulation, contact time 24 hour) was 850. For the same compound, the “Ca (Component A in combination)” value ([2]; 3-Iodo-2-propynyl butylcarbamate combined with Ag-polymer formulation, contact time 48 hour) was 1050, the “Ca (Component A alone)” value [2, 6] was 1050 and the “Ca (Component A alone)” value [2, 7] was 1300. The “Ca (Component A alone)” value [3, 6] was 14 and the “Ca (Component A alone)” value [3, 7] was 14.
In the case of `Oc1cc(Cl)ccc1Oc1ccc(Cl)cc1Cl` [5-Chloro-2-(2,4-dichlorophenoxy)phenol], the “Ca (Component A in combination)” value ([1]; 5-Chloro-2-(2,4-dichlorophenoxy)phenol combined with Ag-polymer formulation, contact time 3 days) is reported as 7, the “Ca (Component A alone)” value ([1]; Table 12, 5-Chloro-2-(2,4-dichlorophenoxy)phenol alone, contact time 3 days) is reported as 9 and the “Ca (Component A alone)” value ([1]; Table 12, 5-Chloro-2-(2,4-dichlorophenoxy)phenol alone, contact time 7 days) is reported as 30. The “Ca (Component A in combination)” value ([2]; 5-Chloro-2-(2,4-dichlorophenoxy)phenol combined with Ag-polymer formulation, contact time 24 hour) was 20, the “Ca (Component A in combination)” value [2, 8] was 30 and 20 and the “Ca (Component A alone)” value [2, 9] was 30. For the same compound, the “Ca (Component A alone)” value [2, 10] was 43, the “Ca (Component A in combination)” value [3, 8] was 9 and 7 and the “Ca (Component A alone)” value [3, 9] was 9. For the same compound, the “Ca (Component A alone)” value [3, 10] was 11.
`O=c1[nH]sc2ccccc12` [Benzisothiazolin-3-one, reference compound] was tested, and the “MIC of component acting alone (end point)” value (“MIC … (end point)” for short) ([1]; contact time 3 days) was 43 ppm, the “MIC … (end point)” value ([1]; contact time 7 days) was 53 ppm and the “MIC … (end point)” value ([2]; contact time 24 hour) was 4 ppm. The “MIC … (end point)” value ([2]; contact time 48 hour) was 7 ppm, the “MIC … (end point)” value ([3]; contact time 24 hour) was 20 ppm and the “MIC … (end point)” value ([3]; contact time 48 hour) was 20 ppm. For the same compound, the “MIC … (end point)” value ([4]; contact time 24 hour) was 30 ppm and the “MIC … (end point)” value ([4]; contact time 48 hour) was 30 ppm.
`O=CCCCC=O` [Glutaraldehyde] was tested, and the “Ca (Component A in combination)” value ([1]; Glutaraldehyde combined with Ag-polymer formulation, contact time 3 days) was 425, the “Ca (Component A in combination)” value ([1]; Glutaraldehyde combined with Ag-polymer formulation, contact time 7 days) was 525 and the “Ca (Component A alone)” value ([1]; Table 11, Glutaraldehyde alone, contact time 3 days) was 525. The “Ca (Component A alone)” value ([1]; Table 11, Glutaraldehyde alone, contact time 7 days) was 650, the “Ca (Component A in combination)” value ([2]; Glutaraldehyde combined with Ag-polymer formulation, contact time 24 hour) was 13 and the “Ca (Component A in combination)” value ([2]; Glutaraldehyde combined with Ag-polymer formulation, contact time 48 hour) was 16. The “Ca (Component A alone)” value [2, 11] was 16, the “Ca (Component A alone)” value [2, 12] was 20 and the “Ca (Component A alone)” value [3, 11] was 13. For the same compound, the “Ca (Component A alone)” value [3, 12] was 20, the “Ca (Component A alone)” value [4, 11] was 88 and the “Ca (Component A alone)” value [4, 12] was 88.
In the case of `OO` [Hydrogen Peroxide], the “Ca (Component A in combination)” value ([1]; Hydrogen Peroxide combined with Ag-polymer formulation, contact time 7 days) is reported as 1300 and 1050, the “Ca (Component A alone)” value ([1]; Table 9, Hydrogen Peroxide alone, contact time 3 days) is reported as 1300 and the “Ca (Component A alone)” value ([1]; Table 9, Hydrogen Peroxide alone, contact time 7 days) is reported as 1750. The “Ca (Component A in combination)” value [2, 13] was 255, the “Ca (Component A in combination)” value ([2]; Hydrogen Peroxide combined with Ag-polymer formulation, contact time 48 hour) was 390 and 315 and 255 and the “Ca (Component A alone)” value [2, 14] was 315. For the same compound, the “Ca (Component A alone)” value [2, 15] was 525, the “Ca (Component A in combination)” value [3, 13] was 53 and 39 and the “Ca (Component A alone)” value [3, 14] was 66. The “Ca (Component A alone)” value [3, 15] was 180, the “Ca (Component A in combination)” value ([4]; contact time 24 hour) was 105 and 85 and the “Ca (Component A in combination)” value ([4]; contact time 48 hour) was 85. For the same compound, the “Ca (Component A alone)” value [4, 14] was 130 and the “Ca (Component A alone)” value [4, 15] was 130.
With `Cn1sccc1=O` [MIT, 2-methyl-4-isothiazolin-3-one, reference compound] the MIC ([1]; ATCC16404, 72 h) was 493 µg/mL, the MIC ([1]; ATCC16404, 168 h) was 603 µg/mL and the MIC ([2]; Pseudomonas aeruginosa, ATCC15442, 48 h, read-out: MIC of component acting alone (end point)) was 24.7 µg/mL. For the same compound, the MIC ([3]; ATCC6538, 24 h) was 34.5 µg/mL, the MIC ([3]; ATCC6538, 48 h) was 34.5 µg/mL and the MIC ([4]; ATCC10231, 24 h) was 288 µg/mL. For the same compound, the MIC ([4]; ATCC10231, 48 h) was 403 µg/mL.
In the case of `OCl` [Sodium hypochlorite], the “Ca (Component A alone)” value ([1]; Table 10, Sodium hypochlorite alone, as Free Cl2, contact time 3 days) is reported as 26, the “Ca (Component A alone)” value ([1]; Table 10, Sodium hypochlorite alone, as Free Cl2, contact time 7 days) is reported as 35 and the “Ca (Component A in combination)” value ([2]; Sodium hypochlorite (as Free Cl2) combined with Ag-polymer formulation, contact time 24 hour) is reported as 0.5. The “Ca (Component A in combination)” value [2, 16] was 0.7, the “Ca (Component A alone)” value [2, 17] was 0.7 and the “Ca (Component A alone)” value [2, 18] was 0.9. For the same compound, the “Ca (Component A in combination)” value [3, 16] was 0.5, the “Ca (Component A alone)” value [3, 17] was 0.4 and the “Ca (Component A alone)” value [3, 18] was 0.7. The “Ca (Component A alone)” value [4, 17] was 0.9 and the “Ca (Component A alone)” value [4, 18] was 2.
For `CC(C)(C)CC(C)(C)c1ccc(OCCOCC[N+](C)(C)Cc2ccccc2)cc1.[Cl-]` [diisobutylphenoxyethoxyethyl dimethylbenzylammonium chloride, reference compound], the “MIC … (end point)” value ([1]; contact time 7 days) was 40.3 ppm, the “MIC … (end point)” value ([3]; contact time 24 hour) was 28.8 ppm and the “MIC … (end point)” value ([3]; contact time 48 hour) was 40.3 ppm. The “MIC … (end point)” value ([4]; contact time 48 hour) was 28.8 ppm and the “MIC … (end point)” value ([5]; contact time 24 hour) was 19.4 ppm.
With “C9-C15 alkyltolylmethyltrimethylammonium chloride [reference compound]” the “MIC … (end point)” value ([1]; contact time 7 days) was 493 ppm, the “MIC … (end point)” value ([2]; contact time 24 hour) was 19.4 ppm and the “MIC … (end point)” value ([2]; contact time 48 hour) was 19.4 ppm. The “MIC … (end point)” value ([3]; contact time 24 hour) was 69 ppm, the “MIC … (end point)” value ([4]; contact time 24 hour) was 98 ppm and the “MIC … (end point)” value ([5]; contact time 24 hour) was 6 ppm. For the same compound, the “MIC … (end point)” value ([5]; contact time 48 hour) was 6 ppm.
